Reference: the supplement of paper PMC13380429

Assays:
Conditions in all cases: 72 h
[1] = tested on: Calu-3; experiment: cell viability relative to DMSO; higher = less toxic
[2] = tested on: Caco-2; experiment: as above
[3] = tested on: Vero E6; experiment: as above
[4] = tested on: HepG2; experiment: as above
[5] = tested on: U2OS; experiment: as above
[6] = tested on: Calu-3; experiment: relative viability EC50 (midpoint between 100% and the lowest measured viability); higher = less toxic
[7] = tested on: Vero E6; experiment: as above
[8] = tested on: HepG2; experiment: as above
[9] = tested on: U2OS; experiment: as above
[10] = tested on: Calu-3; experiment: drug sensitivity score (DSS) for viability; higher = more toxic; extreme values may be limits of the assay
[11] = tested on: Caco-2; experiment: as above
[12] = tested on: Vero E6; experiment: as above
[13] = tested on: HepG2; experiment: as above
[14] = tested on: U2OS; experiment: as above
[15] = tested on: Caco-2; experiment: relative viability EC50 (midpoint between 100% and the lowest measured viability); higher = less toxic

SMILES	cell viability ([1]; 1 nM) [%]	cell viability ([1]; 10 nM) [%]	cell viability ([1]; 100 nM) [%]	cell viability ([1]; 1000 nM) [%]	cell viability ([1]; 10000 nM) [%]	cell viability ([2]; 1 nM) [%]	cell viability ([2]; 10 nM) [%]	cell viability ([2]; 100 nM) [%]	cell viability ([2]; 1000 nM) [%]	cell viability ([2]; 10000 nM) [%]	cell viability ([3]; 1 nM) [%]	cell viability ([3]; 10 nM) [%]	cell viability ([3]; 100 nM) [%]	cell viability ([3]; 1000 nM) [%]	cell viability ([3]; 10000 nM) [%]	cell viability ([4]; 1 nM) [%]	cell viability ([4]; 10 nM) [%]	cell viability ([4]; 100 nM) [%]	cell viability ([4]; 1000 nM) [%]	cell viability ([4]; 10000 nM) [%]	cell viability ([5]; 1 nM) [%]	cell viability ([5]; 10 nM) [%]	cell viability ([5]; 100 nM) [%]	cell viability ([5]; 1000 nM) [%]	cell viability ([5]; 10000 nM) [%]	relative viability EC50 [6] [µM]	relative viability EC50 [7] [µM]	relative viability EC50 [8] [µM]	relative viability EC50 [9] [µM]	drug sensitivity score [10]	drug sensitivity score [11]	drug sensitivity score [12]	drug sensitivity score [13]	drug sensitivity score [14]	relative viability EC50 [15] [µM]
N[C@@H](CSC(c1ccccc1)(c1ccccc1)c1ccccc1)C(=O)O [S-trityl-L-cysteine]	105	104	94.2	92.5	84.6	96.6	100	85.9	98.4	61.4	98.5	100	102	99.2	45	83.6	93	104	100	40.5	101	104	94.6	101	48.5	> 10	3.07	3.21	3.25	0.5	2.1	3	3.2	2.7	
O=C(Nc1ccc(N2CCC(C(=O)N3CCOCC3)CC2)cc1)c1cnc(Oc2ccccc2)nc1 [TFC-007]	96	87.6	100	100	103	99.6	101	110	97.9	110	90.1	101	90	95	110	106	110	101	91.8	91.4						> 10	> 10	> 10		0	0	0	0		> 10
NCC1(CC(=O)O)CCCCC1 [gabapentin]	120	118	100	110	94.4						96	93.6	89.3	94.3	92.5	102	97.6	94.2	89.3	108						> 10	> 10	> 10		0		0	0		
Oc1cc2c(cc1O)C(c1ccccc1)CNCC2 (stereo unspecified)	77.4	103	78.6	99.6	78						104	98.2	103	96.9	106	110	104	108	91.8	107	102	102	97.3	104	99	> 10	> 10	> 10	> 10	2.2		0	0	0	
O=C(C=Cc1ccccc1)NC(NC(=S)Nc1ccc(Cl)cc1)C(Cl)(Cl)Cl (stereo unspecified) [sal003]	106	99.8	95.1	108	95.6	97.6	96	101	91.1	74.1	94.9	102	100	100	81.2	104	102	96.2	99	19.1	98.8	94.6	98.2	93.7	91.5	> 10	> 10	3.08	> 10	0	2.2	0.5	4.6	0	
CCCCCCCCCCCCCC(=O)OC(C)C [isopropyl-myristate]	98.3	105	101	105	94.1	111	97	110	96.9	98.6	101	104	91.5	96.8	96.4											> 10	> 10			0	0	0			> 10
Nc1ccn([C@@H]2O[C@H](CO)[C@@H](O)C2(F)F)c(=O)n1 [gemcitabine]	97.5	106	86.5	63.9	40.8	100	89	72.5	66.2	72	102	102	62.3	59.4	61.4	99.5	71.2	38.3	38.9	40.3	97	105	72.9	67.8	74.1	0.529		0.0105		8.2	9.9	11.9	23.1	8.6	
Cc1c(C2CCN(CCc3ccccc3)CC2)noc1-c1ccc(Cl)cc1	99.9	104	101	108	80.9	103	106	99.9	98.8	68.6	105	99.4	103	98.3	90.3	102	107	96.5	95.8	71.9	102	98.7	101	97.3	96.6	> 10	> 10		> 10	0.3	1.5	0	1.9	0	
